Active and inactive are the calls of the source. The calls are words filed in the database; no cut-off is given here.
Key:
[1] = target: Beta-1 adrenergic receptor (Homo sapiens, UniProt P08588); assay: Displacement of [3H]dihydroalprenolol from human wild type beta1 adrenergic receptor expressed in HEK293 cell membranes after 90 mins by liquid scintillation counting analysis
[2] = target: T1, Muscarinic acetylcholine receptor M4 (Homo sapiens) (UniProt P08173); assay: Agonist activity at human muscarinic M4 receptor expressed in CHO cells assessed as stimulation of ERK1/2 phosphorylation after 15 mins by Alphascreen Surefire assay; assay type: cell-based
T1 sequence (whole entry): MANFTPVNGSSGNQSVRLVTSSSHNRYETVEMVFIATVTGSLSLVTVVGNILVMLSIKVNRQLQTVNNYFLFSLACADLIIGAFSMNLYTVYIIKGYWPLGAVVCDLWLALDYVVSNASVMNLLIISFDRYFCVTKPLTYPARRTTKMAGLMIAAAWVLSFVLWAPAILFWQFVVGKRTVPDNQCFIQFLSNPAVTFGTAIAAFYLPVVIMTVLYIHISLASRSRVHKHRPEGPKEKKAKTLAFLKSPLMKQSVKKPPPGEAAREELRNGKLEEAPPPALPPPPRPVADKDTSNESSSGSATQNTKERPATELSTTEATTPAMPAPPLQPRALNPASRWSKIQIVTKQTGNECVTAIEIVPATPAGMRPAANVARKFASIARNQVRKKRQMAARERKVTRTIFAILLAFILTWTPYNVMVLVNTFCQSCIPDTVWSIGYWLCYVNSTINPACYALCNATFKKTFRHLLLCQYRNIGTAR

[3] = target: T2, Muscarinic acetylcholine receptor M3 (Homo sapiens, UniProt P20309); assay: Agonist activity at human muscarinic M3 receptor expressed in CHO cells assessed as stimulation of ERK1/2 phosphorylation after 15 mins by Alphascreen Surefire assay; assay type: cell-based
Target sequence in this assay (P20309 whole entry, looked up): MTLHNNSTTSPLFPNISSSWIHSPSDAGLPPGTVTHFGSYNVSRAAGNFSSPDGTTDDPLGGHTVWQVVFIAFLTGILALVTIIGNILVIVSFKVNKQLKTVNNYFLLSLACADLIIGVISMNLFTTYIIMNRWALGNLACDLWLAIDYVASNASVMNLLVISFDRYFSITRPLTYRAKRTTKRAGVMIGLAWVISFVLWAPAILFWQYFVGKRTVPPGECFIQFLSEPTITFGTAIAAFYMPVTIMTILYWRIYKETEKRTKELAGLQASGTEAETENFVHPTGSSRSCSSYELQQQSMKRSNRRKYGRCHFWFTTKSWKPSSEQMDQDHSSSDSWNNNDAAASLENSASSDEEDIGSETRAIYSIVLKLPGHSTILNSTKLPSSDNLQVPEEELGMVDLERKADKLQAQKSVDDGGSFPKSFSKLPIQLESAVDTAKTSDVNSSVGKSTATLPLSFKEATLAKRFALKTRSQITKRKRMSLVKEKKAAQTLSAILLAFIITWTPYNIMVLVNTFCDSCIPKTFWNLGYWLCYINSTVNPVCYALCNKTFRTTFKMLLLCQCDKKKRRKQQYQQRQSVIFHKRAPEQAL

[4] = target: T3, Muscarinic acetylcholine receptor M2 (Homo sapiens) (UniProt P08172); assay: Agonist activity at human muscarinic M2 receptor expressed in CHO cells assessed as stimulation of ERK1/2 phosphorylation after 15 mins by Alphascreen Surefire assay; assay type: cell-based
T3 sequence (whole entry): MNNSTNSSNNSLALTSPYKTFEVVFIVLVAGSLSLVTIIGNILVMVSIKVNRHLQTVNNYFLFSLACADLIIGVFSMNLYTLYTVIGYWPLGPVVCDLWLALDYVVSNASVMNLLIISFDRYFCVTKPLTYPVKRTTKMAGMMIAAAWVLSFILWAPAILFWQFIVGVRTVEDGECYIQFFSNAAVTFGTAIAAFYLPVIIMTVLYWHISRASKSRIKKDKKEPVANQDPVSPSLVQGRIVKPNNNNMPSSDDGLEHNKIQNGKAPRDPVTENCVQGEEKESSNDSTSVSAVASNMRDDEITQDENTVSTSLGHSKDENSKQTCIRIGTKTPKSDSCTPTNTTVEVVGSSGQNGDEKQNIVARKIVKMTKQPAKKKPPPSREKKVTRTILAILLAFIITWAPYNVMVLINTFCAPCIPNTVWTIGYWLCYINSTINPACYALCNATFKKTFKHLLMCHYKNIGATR

[5] = target: T4, Muscarinic acetylcholine receptor M1 (Homo sapiens) (UniProt P11229); assay: Agonist activity at human muscarinic M1 receptor expressed in CHO cells assessed as stimulation of ERK1/2 phosphorylation after 15 mins by Alphascreen Surefire assay; assay type: cell-based
T4 sequence (whole entry): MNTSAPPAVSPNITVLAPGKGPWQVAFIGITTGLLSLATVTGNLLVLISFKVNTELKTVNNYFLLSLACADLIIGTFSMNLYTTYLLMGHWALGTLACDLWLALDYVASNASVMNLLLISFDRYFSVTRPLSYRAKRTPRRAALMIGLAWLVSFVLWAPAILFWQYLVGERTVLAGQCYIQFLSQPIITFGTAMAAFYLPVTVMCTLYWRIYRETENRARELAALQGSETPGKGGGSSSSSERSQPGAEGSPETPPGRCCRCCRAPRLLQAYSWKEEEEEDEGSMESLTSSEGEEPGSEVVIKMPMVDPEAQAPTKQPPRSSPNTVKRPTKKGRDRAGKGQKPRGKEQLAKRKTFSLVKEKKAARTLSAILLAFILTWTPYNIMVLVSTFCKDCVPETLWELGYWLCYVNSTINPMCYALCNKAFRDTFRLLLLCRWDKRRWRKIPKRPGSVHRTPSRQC

[6] = target: T5, Muscarinic acetylcholine receptor M2 (Homo sapiens, UniProt P08172); assay: Displacement of [3H]-NMS from recombinant muscarinic M2 receptor (unknown origin) expressed in CHOK1 cells after 60 mins by liquid scintillation counting analysis; assay type: cell-based, CHO-K1
T5 sequence (P08172 whole entry): T3 sequence (whole entry)

[7] = target: T6, Muscarinic acetylcholine receptor M4 (Homo sapiens, UniProt P08173); assay: Displacement of [3H]-NMS from recombinant muscarinic M4 receptor (unknown origin) expressed in CHOK1 cells after 60 mins by liquid scintillation counting analysis; assay type: cell-based, CHO-K1
T6 sequence (P08173 whole entry): T1 sequence (whole entry)

[8] = target: T2, Muscarinic acetylcholine receptor M3; assay: Displacement of [3H]-NMS from recombinant muscarinic M3 receptor (unknown origin) expressed in CHOK1 cells after 60 mins by liquid scintillation counting analysis; assay type: cell-based, CHO-K1
Target sequence in this assay (P20309 whole entry): as the sequence (P20309 whole entry, looked up) above

Chain of Beta-1 adrenergic receptor (P08588 whole entry): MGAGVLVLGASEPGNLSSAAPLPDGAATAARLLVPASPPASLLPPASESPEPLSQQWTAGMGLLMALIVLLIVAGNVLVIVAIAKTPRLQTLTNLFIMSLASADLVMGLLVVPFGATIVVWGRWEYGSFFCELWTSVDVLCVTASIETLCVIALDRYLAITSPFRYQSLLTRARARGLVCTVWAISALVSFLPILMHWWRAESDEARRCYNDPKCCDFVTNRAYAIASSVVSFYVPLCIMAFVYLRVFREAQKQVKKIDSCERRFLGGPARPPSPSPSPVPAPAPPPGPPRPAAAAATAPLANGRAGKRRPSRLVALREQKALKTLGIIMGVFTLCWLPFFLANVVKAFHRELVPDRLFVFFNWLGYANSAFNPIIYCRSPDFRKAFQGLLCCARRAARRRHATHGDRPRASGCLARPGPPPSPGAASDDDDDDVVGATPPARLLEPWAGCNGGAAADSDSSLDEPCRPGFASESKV

SMILES: Clc1ccc(N2CCNCC2)cc1Cl
- Ki [1]: 214 nM

SMILES: FC(F)(F)c1cc(N2CCNCC2)cc(C(F)(F)F)c1
- Ki [1]: 1260 nM

SMILES: Cc1cccc(N2CCNCC2)c1C
- Ki [1]: 537 nM

SMILES: c1cc(N2CCNCC2)c2cc[nH]c2c1
- Activity [2]: inactive
- Activity [3]: inactive
- Activity [4]: inactive
- Activity [5]: inactive
- Ki [6]: > 20000 nM
- Ki [1]: 67.6 nM

SMILES: Cc1ccc(N2CCNCC2)cc1C
- Ki [1]: 741 nM

SMILES: Cc1nc(N2CCNCC2)c2c3c(sc2n1)CC(C)CC3 (stereo unspecified)
- Ki [1]: 676 nM

SMILES: Clc1cccc(N2CCNCC2)c1Cl
- Activity [2]: inactive
- Activity [3]: inactive
- Activity [4]: inactive
- Activity [5]: inactive
- Ki [6]: > 20000 nM
- Ki [1]: 107 nM

SMILES: FC(F)(F)c1ccnc(N2CCNCC2)c1
- Ki [1]: 2340 nM

SMILES: Clc1cc(Cl)cc(N2CCNCC2)c1
- Activity [2]: inactive
- Activity [3]: inactive
- Activity [4]: inactive
- Activity [5]: inactive
- Ki [7]: 31600 nM
- Ki [8]: 7940 nM
- Ki [1]: 85.1 nM

SMILES: FC(F)(F)c1ccnc(N2CCNCC2)n1
- Ki [1]: 2510 nM

SMILES: Cc1cc(N2CCNCC2)nc2ccccc12
- Activity [2]: inactive
- Activity [3]: inactive
- Activity [4]: inactive
- Activity [5]: inactive
- Ki [6]: > 20000 nM
- Ki [1]: 224 nM

SMILES: c1csc(-c2cccc3ccc(N4CCNCC4)nc23)c1
- Ki [1]: 251 nM

SMILES: CSc1nc(N2CCNCC2)c2sc3c(c2n1)CCCC3
- Ki [1]: 200 nM

SMILES: COc1cc(OC)cc(N2CCNCC2)c1
- Ki [1]: 1580 nM

SMILES: Cc1cc(N2CCNCC2)c2ccccc2n1
- Ki [1]: 1580 nM

From ChEMBL document CHEMBL2331162, “Biophysical fragment screening of the β1-adrenergic receptor: identification of high affinity arylpiperazine leads using structure-based drug design” (J Med Chem, 2013)
